Assays:
HBV = assay: Inhibition of HBV replication in transfected HepG2 cells by ELISA; assay type: cell-based; details: read-out: anti-HBV activity (IC50)
Source text: These cells constituitively replicate HBV particles.

CEM-SS cells = assay: Cytotoxicity by uptake of TdR-H3 into total DNA in CEM-SS cells; assay type: cell-based; details: serial concentrations of compound
[1] = system: HBV-induced DNA, core antigen (HBcAg) and "e" antigen (HBeAg); assay: Mechanism studies: cellular production of HBV-induced DNA, core antigen and e antigen; assay type: cell-based
HepG2 cells = details: read-out: cytotoxicity (TC50); HepG2 cells transfected with HBV genomes; neutral red dye uptake
Description: Human hepatoblastomas (HepG2) cells were tranfected with plasmid DNA containing tandem copies of HBV genomes. These cells constituitively replicate HBV particles. HepG2 cells were treated with varying concentrations of CP-128 to determine the toxic cell concentration (TC50) by neutral red dye uptake. Also, the inhibitory concentration (IC50) of CP-128 for HBV replication was determined by ELISA.

HIV-1 = assay: Anti-HIV-1 syncytial plaque assay using CEM-SS cell monolayers; assay type: cell-based, human immunodeficiency virus type 1 (HIV-1); details: for IC50: HIV-1 syncytial plaque formation, CEM-SS cell monolayers, plaques counted at five days; for inhibition of HIV-1 activity in CEM-SS cells: in nanomolar concentration
Source text: In brief, CEM-SS cell monolayers were infected with HIV-1. Infected cells were overlaid with RPMI-1640 medium plus 10 percent fetal bovine serum (FBS) supplemented with different concentrations of inhibitor. Plaques were counted at five days after infection. In this assay HIV-1 syncytial plaques are seen as large, multicellular foci (10 to 25 nuclei/syncytium) that appear either brown and granular or clear. Since the number of HIV-1 syncytial plaques correlates with reverse transcriptase (RT) and p24 core antigen activity in the HIV-1 infected cell overlay fluids, the syncytial plaque assay can be used to quantify the amount of infectious virus. Reverse transcriptase activity was assayed according to a described procedure (B. J. Poeisz et al., Proc. Natl. Acad. Scie. (U.S.A.) 77, 7415 (1980)). The activity of p24 core antigen induced by HIV-1 infection of CEM-SS cells was measured spectrophotometrically using the commercial Coulter EIA.

| Structure (SMILES) | IC50 (HBV) [µM] | IC50 (CEM-SS cells) [µM] | effect on cellular production of HBV-induced DNA, core antigen (HBcAg) and "e" antigen (HBeAg) [1] | CC50 (HepG2 cells) [µM] | IC50 (HIV-1) [µM] | inhibition of HIV-1 activity in CEM-SS cells (HIV-1) |
| --- | --- | --- | --- | --- | --- | --- |
| CCCCCCCCCCCC(=O)NCC(COP(=O)([O-])OCC[N+](C)(C)C)OCCCCCCCCCC (stereo not shown) [CP-128, 1-dodecanamido-2-decyloxypropyl-3-phosphocholine] | 15.6 | 31.6 | inhibitory effect | 61.7 | 0.14 | substantially inhibit |
| CCCCCCCCCCCCOCC(COP(=O)([O-])OCC[N+](C)(C)C)OCCCCCCCCCC (stereo not shown) [CP-129, 1-dodecyloxy-2-decyloxypropyl-3-phosphocholine] | – | 75.7 | – | – | 0.64 | substantially inhibit |
| CCCCCCCCCCCC(=O)NCC(COP(=O)([O-])OCC[N+](C)(C)C)OCCCCCCCC (stereo not shown) [CP-130, 1-dodecanamido-2-octyloxypropyl-3-phosphocholine] | – | 67.2 | – | – | 0.11 | substantially inhibit |
| CCCCCCCCCCCCOC(CNC(=O)CCCCCCCCCCC)COP(=O)([O-])OCC[N+](C)(C)C (stereo not shown) [CP-131, 1-dodecanamido-2-dodecyloxypropyl-3-phosphocholine] | – | 36.6 | – | – | 0.32 | substantially inhibit |
| CCCCCCCCCCCCCCCCSC1CCCC(OP(=O)([O-])OCC[N+](C)(C)C)C1 (stereo not shown) [INK-1, 3-hexadecylthio-cyclohexylphosphocholine] | – | – | – | – | – | substantially inhibit |
